Here are results for 3 compounds from patent publication US12521444B2, “Anti-HER2 antibody-drug conjugates and uses thereof” (Fortvita Biologics Limited, priority 2021, dated 2026).

pIC50: −log10 of the molar value. Where only a bound is given, the exact number is not on record here.

Series [1] relates to NCI-N87. Briefly: In vitro cytotoxicity assay (CCK-8) in NCI-N87. In kind it is cell-based. Particulars: Homo sapiens, toxins (expected metabolites of the ADCs), 120 hours. The method, then: (§1) Dispensed 175 μL cell suspension in 96-well plate at 1500 cells per well and incubate for 24 hours in a humidified incubator (37° C., 5% CO2). […] Added 25 μL various concentrations of compound as a […] solution into the cell culture medium (Fetal bovine serum, Invitrogen) in the plate and incubated for 120 hours in the incubator. Thawed CCK-8 on the bench top or in a 37° C. water bath, added 10 μL of CCK-8 to each well of the incubated plate (be careful not introducing air bubbles into the wells since they would interfere with the O. D. reading) and then further incubated for 1-4 hours in the incubator. Measured the absorbance at 450 nm using a SpectraMax i3× Microplate Reader and calculated the cell inhibition rate. The IC50 curves were generated along with the IC50 values by using GraphPad Prism software.

The subject of series [2] is MDA-MB-468. Briefly: In vitro cytotoxicity assay (CCK-8) in MDA-MB-468. In kind it is cell-based. The conditions noted are these: Homo sapiens, toxins (expected metabolites of the ADCs), 120 hours. The method, then: as §1
In series [3] the test system is JIMT-1. Briefly: cells. The conditions noted are these: for pIC50: Homo sapiens, JIMT-1, toxins (expected metabolites of the ADCs), 120 hours. The series is classed as cell-based, human. On the procedure: as §1
In series [4] the test system is SK-BR-3. Briefly: In vitro cytotoxicity assay (CCK-8) in SK-BR-3. In kind it is cell-based. The conditions noted are these: Homo sapiens, toxins (expected metabolites of the ADCs), 120 hours. The method, then:
as §1

For series [5], the system named is MCF-7. Briefly: In vitro cytotoxicity assay (CCK-8) in MCF-7. The series is classed as cell-based. Particulars: Homo sapiens, MCF7; toxins (expected metabolites of the ADCs), 120 hours. On the procedure: as §1
For series [6], the system named is SK-OV-3. Briefly: In vitro cytotoxicity assay (CCK-8) in SK-OV-3. The conditions noted are these: Homo sapiens, toxins (expected metabolites of the ADCs), 120 hours. In kind it is cell-based. On the procedure:
as §1

In series [7] the test system is OVCAR-3. Briefly: In vitro cytotoxicity assay (CCK-8) in OVCAR-3. In kind it is cell-based. The conditions noted are these: Homo sapiens, toxins (expected metabolites of the ADCs), 120 hours. On the procedure:
as §1

As to `CCc1c2c(nc3cc(F)c(C)c(CCCCO)c13)-c1cc3c(c(=O)n1C2)COC(=O)[C@]3(O)CC`, the pIC50 in series [1], in series [2], in series [3] and in series [4] was under 7.52 in each case.
Take `CC[C@@]1(O)C(=O)OCc2c1cc1n(c2=O)Cc2cc3c(CCCCO)c(C)c(F)cc3nc2-1` [MB-1, (19S)-19-ethyl-6-fluoro-19-hydroxy-8-(4-hydroxybutyl)-7-methyl-17-oxa-3,13-diazapentacyclo[11.8.0.0^2,11.0^4,9.0^15,20]henicosa-1(21),2,4,6,8,10,15(20)-heptaene-14,18-dione]: the pIC50 in series [5] is 9.43; in series [6] it was 9.00; in series [1] it was 8.89; in series [7] it was 10.00; in series [2] it was 9.38; in series [3] it was 9.11. In addition, the pIC50 in series [4] is 9.11. Moreover, in series [3], the “cytotoxic potency relative to DXd” value is “ten folds more potent than DXd”.
As to `CC[C@@]1(O)C(=O)OCc2c1cc1n(c2=O)Cc2c-1nc1cc(F)c(C)c3c1c2[C@@H](NC(=O)CO)CC3` [DXd, reference compound], the pIC50 in series [1] was 8.44; in series [4], 8.72.
